Data published in publication PMC11967795 (Advanced Science, 2025).

Legend:
[1] = biological target: T1, RhuA (rRhuA; R. anatipestifer haemin uptake protein A) (Riemerella anatipestifer, UniProt J9QZE1); assay: SDS-PAGE and ECL detection of bound haemin; assay type: binding; settings: positive control
T1 construct: gene B739_1417; recombinant
T1 sequence (J9QZE1 17-210): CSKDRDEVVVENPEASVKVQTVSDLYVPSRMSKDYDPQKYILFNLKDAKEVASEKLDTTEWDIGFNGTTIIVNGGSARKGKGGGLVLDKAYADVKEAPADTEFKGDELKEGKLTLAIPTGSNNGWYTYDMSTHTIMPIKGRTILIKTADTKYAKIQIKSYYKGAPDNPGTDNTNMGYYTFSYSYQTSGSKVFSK

[2] = biological target: recombinant RhuH protein (R. anatipestifer haem uptake protein haemophore), mature, without signal peptide (Riemerella anatipestifer CH-1); assay: SEC; purified recombinant apo RhuH on size exclusion chromatography; elution compared with the 35 kDa of the sequence

Compound	SDS-PAGE and ECL detection of bound haemin [1]	stoichiometry N [2]
C=CC1=C(C)C2=Cc3c(C=C)c(C)c4[n]3[Fe]([Cl])[n]3c(c(C)c(CCC(=O)O)c3=CC3=NC(=C4)C(C)=C3CCC(=O)O)=CC1=N2 [haemin]	haemin signal was detected in the haem binding protein rRhuA (positive control) incubated with haemin	
recombinant RhuH protein (R. anatipestifer haem uptake protein haemophore), mature, without signal peptide (natural protein)		2
